Test results reported in patent US4439426A, “Semisynthetic macrolidic antibiotics, intermediate compounds for their preparation and related pharmaceutical compositions containing them” (priority 1981, dated 1984).
≈ marks a conversion by molar mass, not a printed value.

Columns and labels:
[1] = tested on: Corynebacterium diphteriae LRP 24; test: Bacteriostatic power in liquid medium (MIC); assay type: cell-based; settings: Corynebacterium, LRP24; liquid medium; read-out: Minimum inhibiting concentration
From the text: (§1) the bacteriostatic power, expressed as the minimum inhibiting concentration (MIC) against both aerobic and anaerobic, Gram positive and Gram negative, bacterial stocks: the related results are reported in the tables 2 and 3.

[2] = tested on: Streptococcus pyogenes ATCC 8668 LRP 34; test: Bacteriostatic power in liquid medium (MIC); assay type: cell-based; settings: Streptococcus pyogenes, ATCC8668; liquid medium; read-out: Minimum inhibiting concentration
From the text: as §1

[3] = tested on: Streptococcus faecalis subs. zymogenes ATCC 12958 LRP 61; test: Bacteriostatic power in liquid medium (MIC); assay type: cell-based; settings: Enterococcus faecalis, ATCC12958; liquid medium; read-out: Minimum inhibiting concentration
From the text: as §1

[4] = tested on: Staphylococcus aureus ATCC 6538 P LRP 39; test: Bacteriostatic power in liquid medium (MIC); assay type: cell-based; settings: Staphylococcus aureus, ATCC6538; liquid medium; read-out: Minimum inhibiting concentration
From the text: as §1

[5] = tested on: Streptococcus pneumoniae ATCC 6303 LRP 35; test: Bacteriostatic power in liquid medium (MIC); assay type: cell-based; settings: Streptococcus pneumoniae, ATCC6303; liquid medium; read-out: Minimum inhibiting concentration
From the text: as §1

[6] = Stability in acidic environment at 25° C. (half-life of initial microbiological activity); assay type: physicochemical; settings: aqueous solution
Experimental: Stability in acidic environnment at 25° C. of the novel
Note: t 1/2 represents the time for reducing to one half the initial powe
of the antibiotic determined by microbiological method through diffusion
on a plate using the test stock Microccocus luteus (Sarcina lutea) ATCC

[7] = tested on: Streptococcus faecalis subs. zymogenes LRP 61; test: Minimum bactericidal concentration (MBC); assay type: cell-based
From the text: (§2) the bacterial power, expressed as the minimum bactericidal power (MBC) against some Gram positive aerobic stocks (table 5).

[8] = tested on: Corynebacterium diphteriae LRP 24; test: Minimum bactericidal concentration (MBC); assay type: cell-based
From the text: as §2

[9] = tested on: Streptococcus pyogenes ATCC 8668 LRP 34; test: Minimum bactericidal concentration (MBC); assay type: cell-based
From the text: as §2

[10] = tested on: Staphylococcus aureus ATCC 6538 P LRP 39; test: Minimum bactericidal concentration (MBC); assay type: cell-based
From the text: as §2

[11] = tested on: Streptococcus pneumoniae ATCC 6303 LRP 35; test: Minimum bactericidal concentration (MBC); assay type: cell-based
From the text: as §2

[12] = tested on: Streptococcus faecalis subsp. zymogenes ATCC 12958 LRP 61; test: Bacteriostatic power in solid medium (MIC); assay type: cell-based; settings: Enterococcus faecalis, ATCC12958; solid medium; read-out: Minimum inhibiting concentration
From the text: as §1

[13] = tested on: Acholeplasma laidlawii ATCC 23206 LRP 204; test: Bacteriostatic power in solid medium (MIC); assay type: cell-based; settings: Acholeplasma laidlawii, ATCC23206, read-out: Minimum inhibiting concentration
From the text: as §1

[14] = tested on: Bacteroides fragilis ATCC 23745 LRP 205; test: Bacteriostatic power in solid medium (MIC); assay type: cell-based; settings: Bacteroides fragilis, ATCC23745; solid medium; anaerobic; read-out: Minimum inhibiting concentration
From the text: as §1

[15] = tested on: Staphylococcus aureus ATCC 14154 LRP 78; test: Bacteriostatic power in solid medium (MIC); assay type: cell-based; settings: Staphylococcus aureus, ATCC14154; solid medium; Erythromycin resistant; read-out: Minimum inhibiting concentration
From the text: as §1

[16] = tested on: Staphylococcus aureus ATCC 6538P LRP 14; test: Bacteriostatic power in solid medium (MIC); assay type: cell-based; settings: Staphylococcus aureus, ATCC6538P; solid medium; Penycilline resistant; read-out: Minimum inhibiting concentration
From the text: as §1

[17] = tested on: Streptococcus pneumoniae ATCC 6303 LRP 52; test: Bacteriostatic power in solid medium (MIC); assay type: cell-based; settings: Streptococcus pneumoniae, ATCC6303; solid medium; read-out: Minimum inhibiting concentration
From the text: as §1

[18] = tested on: Proteus vulgaris ATCC 6380 LRP 13; test: Bacteriostatic power in solid medium (MIC); assay type: cell-based; settings: Proteus vulgaris, ATCC6380; solid medium; read-out: Minimum inhibiting concentration
From the text: as §1

[19] = tested on: Corynebacterium diphteriae LRP 24; test: Bacteriostatic power in solid medium (MIC); assay type: cell-based; settings: Corynebacterium, LRP24; solid medium; read-out: Minimum inhibiting concentration
From the text: as §1

[20] = tested on: Bacillus subtilis LRP 25; test: Bacteriostatic power in solid medium (MIC); assay type: cell-based; settings: Bacillus subtilis, LRP25; solid medium; read-out: Minimum inhibiting concentration
From the text: as §1

[21] = tested on: Streptococcus pyogenes ATCC 8668 LRP 34; test: Bacteriostatic power in solid medium (MIC); assay type: cell-based; settings: Streptococcus pyogenes, ATCC8668; solid medium; read-out: Minimum inhibiting concentration
From the text: as §1

[22] = tested on: Mycoplasma hominis I ATCC 14027 LRP 211; test: Bacteriostatic power in solid medium (MIC); assay type: cell-based; settings: Metamycoplasma hominis, ATCC14027; solid medium; read-out: Minimum inhibiting concentration
From the text: as §1

[23] = tested on: Streptococcus pneumoniae ATCC 6303 LRP 53; test: Bacteriostatic power in solid medium (MIC); assay type: cell-based; settings: Streptococcus pneumoniae, ATCC6303; solid medium; read-out: Minimum inhibiting concentration
From the text: as §1

[24] = tested on: Shigella sonnei LRP 5; test: Bacteriostatic power in solid medium (MIC); assay type: cell-based; settings: LRP5, read-out: Minimum inhibiting concentration
From the text: as §1

[25] = tested on: Staphylococcus aureus ATCC 6538P LRP 39; test: Bacteriostatic power in solid medium (MIC); assay type: cell-based; settings: Staphylococcus aureus, ATCC6538P; solid medium; read-out: Minimum inhibiting concentration
From the text: as §1

[26] = tested on: Neisseria gonorrhoeae ATCC 19424 LRP 214; test: Bacteriostatic power in solid medium (MIC); assay type: cell-based; settings: Neisseria gonorrhoeae, ATCC19424; solid medium; read-out: Minimum inhibiting concentration
From the text: as §1

[27] = tested on: Micrococcus luteus ATCC 15957 LRP 193; test: Bacteriostatic power in solid medium (MIC); assay type: cell-based; settings: Micrococcus luteus, ATCC15957; solid medium; Erythromycin resistant; read-out: Minimum inhibiting concentration
From the text: as §1

[28] = tested on: Klelsiella pneumoniae LRP 54; test: Bacteriostatic power in solid medium (MIC); assay type: cell-based; settings: solid medium; read-out: Minimum inhibiting concentration
From the text: as §1

[29] = tested on: Fusobacteriumnecrophroum ATCC 27852 LRP 210; test: Bacteriostatic power in solid medium (MIC); assay type: cell-based; settings: solid medium; anaerobic; read-out: Minimum inhibiting concentration
From the text: as §1

[30] = tested on: Haemophilus influenzae ATCC 19418 LRP 213; test: Bacteriostatic power in solid medium (MIC); assay type: cell-based; settings: Haemophilus influenzae, ATCC19418; solid medium; read-out: Minimum inhibiting concentration
From the text: as §1

[31] = tested on: Escherichia coli LRP 50; test: Bacteriostatic power in solid medium (MIC); assay type: cell-based; settings: Escherichia coli, LRP50; solid medium; read-out: Minimum inhibiting concentration
From the text: as §1

[32] = tested on: Streptococcus pneumoniae ATCC 6303 LRP 35; test: Bacteriostatic power in solid medium (MIC); assay type: cell-based; settings: Streptococcus pneumoniae, ATCC6303; solid medium; read-out: Minimum inhibiting concentration
From the text: as §1

[33] = tested on: Micrococcus luteus ATCC 9341 LRP 6; test: Bacteriostatic power in solid medium (MIC); assay type: cell-based; settings: Micrococcus luteus, ATCC9341; solid medium; read-out: Minimum inhibiting concentration
From the text: as §1

[34] = tested on: Pseudomonas aeruginosa LRP 9; test: Bacteriostatic power in solid medium (MIC); assay type: cell-based; settings: Pseudomonas aeruginosa, LRP9; solid medium; read-out: Minimum inhibiting concentration
From the text: as §1

[35] = tested on: Streptococcus faecalis LRP 7; test: Bacteriostatic power in solid medium (MIC); assay type: cell-based; settings: Enterococcus faecalis, LRP7; solid medium; read-out: Minimum inhibiting concentration
From the text: as §1

[36] = tested on: Streptococcus pyogenes ATCC 8668 LRP 197; test: Bacteriostatic power in solid medium (MIC); assay type: cell-based; settings: Streptococcus pyogenes, ATCC8668; solid medium; read-out: Minimum inhibiting concentration
From the text: as §1

[37] = tested on: Clostridium perfrigens ATCC 3624 LRP 206; test: microbe, parasite or virus in culture; assay type: cell-based; settings: ATCC3624, solid medium, anaerobic, read-out: Minimum inhibiting concentration
From the text: as §1

[38] = tested on: Salmonella typhy LRP 8; test: microbe, parasite or virus in culture; assay type: cell-based; settings: LRP8, solid medium, read-out: Minimum inhibiting concentration
From the text: as §1

`CC[C@H]1OC(=O)[C@H](C)[C@@H](O[C@H]2C[C@@](C)(O)[C@@H](O)[C@H](C)O2)[C@H](C)[C@@H](O[C@@H]2O[C@H](C)C[C@H](N(C)C)[C@H]2O)[C@](C)(O)C[C@](C)(F)C(=O)[C@H](C)[C@@H](O)[C@H]1C` [P-80202, (8S)-8-fluoroerythromycin D] gave an MIC [1] of 0.012 µg/mL (≈ 0.0166 µM), an MIC [2] of 0.049 µg/mL (≈ 0.0679 µM) and an MIC [3] of 0.39 µg/mL (≈ 0.54 µM). The MIC [4] was 0.195 µg/mL (≈ 0.27 µM), the MIC [5] was 0.049 µg/mL (≈ 0.0679 µM) and the half-life ([6]; pH 2) was 0.4 h. For the same compound, the half-life ([6]; pH 3) was 10 h, the MBC/MIC [7] was 8 and the MBC ([7]; Enterococcus faecalis, read-out: Minimum bactericidal concentration (MBC)) was 3.12 µg/mL (≈ 4.32 µM). It also gave an MBC/MIC [8] of 16, an MBC ([8]; Corynebacterium, LRP24, read-out: Minimum bactericidal concentration (MBC)) of 0.195 µg/mL (≈ 0.27 µM) and an MBC/MIC [9] of 8. The MBC ([9]; Streptococcus pyogenes, ATCC8668, read-out: Minimum bactericidal concentration (MBC)) was 0.39 µg/mL (≈ 0.54 µM), the MBC/MIC [10] was 16 and the MBC ([10]; Staphylococcus aureus, ATCC6538, read-out: Minimum bactericidal concentration (MBC)) was 3.12 µg/mL (≈ 4.32 µM). It also gave an MBC/MIC [11] of 4, an MBC ([11]; Streptococcus pneumoniae, ATCC6303, read-out: Minimum bactericidal concentration (MBC)) of 0.195 µg/mL (≈ 0.27 µM) and an MIC [12] of 0.097 µg/mL (≈ 0.134 µM). It also gave an MIC [13] of 3.12 µg/mL (≈ 4.32 µM), an MIC [14] of 0.39 µg/mL (≈ 0.54 µM) and an MIC [15] of 25 µg/mL (≈ 34.6 µM). It also gave an MIC [16] of 0.097 µg/mL (≈ 0.134 µM), an MIC [17] of 0.024 µg/mL (≈ 0.0332 µM) and an MIC [18] of 25 µg/mL (≈ 34.6 µM). The MIC [19] was 0.006 µg/mL (≈ 0.00831 µM), the MIC [20] was 0.049 µg/mL (≈ 0.0679 µM) and the MIC [21] was 0.024 µg/mL (≈ 0.0332 µM). For the same compound, the MIC [22] was 25 µg/mL (≈ 34.6 µM), the MIC [23] was 0.024 µg/mL (≈ 0.0332 µM) and the MIC [24] was 25 µg/mL (≈ 34.6 µM). For the same compound, the MIC [25] was 0.097 µg/mL (≈ 0.134 µM), the MIC [26] was 0.097 µg/mL (≈ 0.134 µM) and the MIC [27] was 25 µg/mL (≈ 34.6 µM). For the same compound, the MIC [28] was 25 µg/mL (≈ 34.6 µM), the MIC [29] was 6.25 µg/mL (≈ 8.66 µM) and the MIC [30] was 6.25 µg/mL (≈ 8.66 µM). It also gave an MIC [31] of 25 µg/mL (≈ 34.6 µM), an MIC [32] of 0.024 µg/mL (≈ 0.0332 µM) and an MIC [33] of 0.006 µg/mL (≈ 0.00831 µM). It also gave an MIC [34] of 25 µg/mL (≈ 34.6 µM), an MIC [35] of 0.097 µg/mL (≈ 0.134 µM) and an MIC [36] of 0.024 µg/mL (≈ 0.0332 µM). It also gave an MIC [37] of 3.12 µg/mL (≈ 4.32 µM) and an MIC [38] of 12.5 µg/mL (≈ 17.3 µM).
